Experimental data from the NIST ThermoML archive (doi:10.1021/je700717w).

Columns and labels:
[1] = xn = mol fraction of the nth substance listed; details: 101 kPa, Liquid, Taylor dispersion method, x1 = 0
[2] = 101 kPa, Liquid, Taylor dispersion method

SMILES | binary diffusion coefficient ([1]; 293.15 K) | binary diffusion coefficient ([1]; 298.15 K) | binary diffusion coefficient ([1]; 303.15 K) | binary diffusion coefficient ([1]; 313.15 K) | binary diffusion coefficient ([1]; 323.15 K) | binary diffusion coefficient ([1]; 333.15 K) | binary diffusion coefficient ([1]; 343.15 K) | binary diffusion coefficient ([1]; 353.15 K) | binary diffusion coefficient ([1]; 363.15 K) | binary diffusion coefficient ([1]; 368.15 K) | self diffusion coefficient ([2]; 293.15 K) | self diffusion coefficient ([2]; 298.15 K) | self diffusion coefficient ([2]; 303.15 K) | self diffusion coefficient ([2]; 313.15 K) | self diffusion coefficient ([2]; 323.15 K) | self diffusion coefficient ([2]; 333.15 K) | self diffusion coefficient ([2]; 343.15 K) | self diffusion coefficient ([2]; 353.15 K) | self diffusion coefficient ([2]; 363.15 K) | self diffusion coefficient ([2]; 368.15 K)
[N-]=[N+]=O [nitrous oxide] + O | 1.7e-09 m2/s | 2.05e-09 m2/s | 2.3e-09 m2/s | 2.99e-09 m2/s | 4.02e-09 m2/s | 4.9e-09 m2/s | 5.79e-09 m2/s | 7.09e-09 m2/s | 8.23e-09 m2/s | 8.87e-09 m2/s | – | – | – | – | – | – | – | – | – | –
O [water] | – | – | – | – | – | – | – | – | – | – | 1.7e-09 m2/s | 2.05e-09 m2/s | 2.3e-09 m2/s | 2.99e-09 m2/s | 4.02e-09 m2/s | 4.9e-09 m2/s | 5.79e-09 m2/s | 7.09e-09 m2/s | 8.23e-09 m2/s | 8.87e-09 m2/s
